Reference: the OPERA property sets (Mansouri et al. 2018)

Structure (SMILES) | logP
Cc1cccc(C)c1NC(=O)c1ccc(CN2CCCCC2)cc1 | 3.86
CC(C)=NO | 0.12
COc1cc(C=NO)ccc1OCCOC(=O)c1ccc(Cl)cc1 | 3.92
CC(C)(C)/[N+]([O-])=C/c1ccccc1 | 1.26
CC(=O)Nc1ccc2oc(C)c(C)c(=O)c2c1 | 1.79
Cc1ccc(Cc2c[nH]c(NCCCCc3ccc(Br)cc3C)nc2=O)cn1 | 3.61
Cc1ccc(S(=O)(=O)Oc2ccccc2C(=O)N(C)C)cc1 | 2.01
O=[N+]([O-])c1ccc(C(F)(F)F)cc1 | 2.55
CCOCCOC(=O)C(C#N)=C(CC)NCc1ccc([N+](=O)[O-])cc1 | 2.64
COc1cc(C=O)ccc1OCCOC(=O)c1cccc(Cl)c1 | 3.67
CCCc1ccc(NC(C)=O)cc1 | 2.75
O=S(=O)(NO)c1ccccc1 | 0.48
CCOC(=O)C(=Cc1ccc(OC)c(OC)c1)C(=O)OCC | 2.89
CCCOCCC(=O)N(C)c1ccc(S(=O)(=O)N(C)C)cc1 | 1.26
CC(=O)Nc1ccc(CN(C)N=Nc2ccc(C(=O)O)cc2)cc1 | 3.35
Nc1ccc(S(=O)(=O)[O-])c2ccccc12.[Na+] | -2.34
CN(C)C(=S)Nc1ccccc1 | 1.04
O=NN(CCCl)C(=O)Nc1ccc(Cl)cc1 | 3.16
S=C(Nc1ccccc1)c1ccccc1 | 3.03
CCN(CC)Cc1ccc(C(=O)Nc2c(C)cccc2C)cc1 | 3.49
NC(=O)Nc1cccc(NC(N)=O)c1 | 0.58
CCOC(=O)c1ccc(NC(=O)C(F)(F)F)cc1 | 2.25
O=S([O-])c1ccccc1.[Na+] | -3.54
O=NN(CCCl)C(=O)NC1(C(=O)O)CCCC1 | 2.01
CCOC(=O)CC(=O)C=Cc1cccc(C)c1 | 2.8

Structure (SMILES) | logP
NC(=O)c1cccnc1N | 0.88
COc1ccc(-c2nc3ncccc3[nH]2)c(OC)c1 | 2.57
COc1ccc2c(=O)c(C)c(C(C)C)oc2c1 | 3.39
CC(=O)n1ccnc1 | -0.34
CC(=O)NNC(=O)c1ccccc1N(C)C | 1.49
COc1cc(C=NO)ccc1OCCO | 0.82
CC(=O)Nc1ccccc1C(C)C | 1.71
CC(C)OC(=O)c1ccccc1 | 3.18
NCC(=O)NCC(=O)NCC(=O)NCC(=O)NCC(=O)O | -3.31
CC(=O)Nc1ccc(C#N)cc1 | 1.37
CN(C)/N=N/c1ccccc1C(=O)NCC#N | 1.79
COC(=O)c1cc2nc(S(=O)Cc3ncccc3C)[nH]c2cc1C (stereo unspecified) | 2.4
O=C(CCc1ccccc1)Nc1ccc(Cl)c(Cl)c1 | 4.85
CC(C)(C)C(=O)Nc1ccc(Cl)c(Cl)c1 | 3.88
CC(C)C(=O)Nc1ccc(Cl)c(Cl)c1 | 3.72
NCC(=O)NCC(=O)NCC(=O)O | -2.68
O=C(Nc1ccc(Cl)c(Cl)c1)C(F)(F)F | 3.9
CCOCCOC(=O)C(C#N)=C(NCc1ccc(Cl)cc1)C(C)C | 4.05
COCC(=O)Nc1ccc(Cl)c(Cl)c1 | 2.77
O=C(C=Cc1ccc2c(c1)OCO2)N1CCCCC1 | 2.82
CCOc1ccccc1NC(C)=O | 1.49
CCCCC(=O)N(C)c1ccc(S(=O)(=O)N(C)C)cc1 | 1.63
CCCc1c(OCCCCc2nnn[nH]2)ccc(C(C)=O)c1O | 3.82
O=C(Nc1ccc(Cl)c(Cl)c1)c1ccccc1 | 4.42
CCC1(C)CCC(=O)NC1=O (stereo unspecified) | 0.23

Structure (SMILES) | logP
COc1cc(C=O)ccc1OCCOC(=O)c1ccc(Cl)cc1 | 3.71
CCN(CC)Cc1ccc(C(=O)Nc2ccccc2)cc1 | 3.49
FC(F)(F)C(F)(F)C(F)(F)C(F)(F)C(F)(F)F | 4.4
Cc1c(NCC(C)C)c(=O)n(-c2ccccc2)c(=O)n1C | 1.48
CC(=O)OC1OC(C)C(OC(C)=O)C(OC(C)=O)C1NC(=O)N(CCCl)N=O (stereo unspecified) | 1.32
CCC[Si](C)(C)C | 3.84
COc1cc(C=NO)ccc1OCCOC(=O)c1cccc(Cl)c1 | 3.94
CNC(=N[N+](=O)[O-])NCCSCc1nc[nH]c1C | 0.18
O=C(CCl)Nc1ccc(Cl)c(Cl)c1 | 3.29
CN(C(=O)CCC(N)=O)c1ccc(S(=O)(=O)N(C)C)cc1 | -0.56
CNC(=O)Oc1cccc(Cl)c1Cl | 2.48
Cn1nnnc1SCc1ccccc1 | 1.63
O=S(Cc1ccccn1)c1nc2ccccc2[nH]1 (stereo unspecified) | 1.33
CC(=O)Nc1ccc2nccnc2c1 | 1
COC1OC(CNC(=O)N(C)N=O)C(O)C(O)C1O (stereo unspecified) | -1.57
COC1OC(CO)C(O)C(NC(=O)N(C)N=O)C1O (stereo unspecified) | -0.82
O=S1(=O)NC(C2=CCCC2)=Nc2ccccc21 | 1.69
CS(=O)(=O)OCCCNCCCOS(C)(=O)=O | -1.71
CNC(=S)Nc1ccccc1 | 0.85
NNc1ccc(Br)cc1 | 1.39
COc1cccc(OC)n1 | 2.3
CC(=O)OC1CCCC(NC(=O)N(CCF)N=O)C1 (stereo unspecified) | 1.33
NC(=O)NN=Cc1ccccc1 | 1.27
CCCCCC(=O)N(C)c1ccc(S(=O)(=O)N(C)C)cc1 | 2.16
O=c1cc(-c2ccc(O)cc2)oc2ccccc12 | 3.2

Structure (SMILES) | logP
CCCCC(=O)Nc1ccc(Cl)c(Cl)c1 | 4.17
O=C([O-])c1cc2ccccc2cc1O.[Na+] | 0.17
C=CCn1c(C)c(N(C)C)c(=O)n(-c2ccccc2)c1=O | 1.44
FC(F)(F)CN(CC(F)(F)F)c1ccc(Br)cc1 | 4.7
CC=CC(=O)Nc1ccc(Cl)c(Cl)c1 | 3.63
O=C(O)c1cc(=O)c2ccccc2o1 | 1.63
CC(C)(C)[N+]([O-])=NC#N | 1.4
Cn1c(C=O)cnc1[N+](=O)[O-] | -0.1
CC(=O)OCC1OC(NC(=O)N(CCCl)N=O)C(OC(C)=O)C(OC(C)=O)C1OC(C)=O (stereo unspecified) | 1.04
OCCOCCN1CCN(CCCN2c3ccccc3Sc3ccc(C(F)(F)F)cc32)CC1 | 4.49
CCOC(=O)CNCCCCCSc1c2[nH]cnc2nc[n+]1[O-] | 0.87
COc1cc(C=O)ccc1OCCO | 0.58
NC1=NS(=O)(=O)c2ccc(Cl)cc2N1 | 0.91
O=C(OCCNC(=O)C(F)(F)F)c1ccccc1 | 2.25
CC(=O)Nc1cccc(I)c1 | 2.64
CCOC(=O)CC(=O)C=Cc1ccccc1C | 2.66
O=S(=O)(NS(=O)(=O)c1ccccc1)c1ccccc1 | 0.52
COc1ccc(Cc2cnc(N)nc2N)c(OC)c1OC | 1.52
c1ccn2nnnc2c1 | -0.09
CSC(=O)Nc1ccc(Cl)c(Cl)c1 | 4.23
CNc1cccc2ccccc12 | 2.88
CCOC(=O)CON=Cc1ccc(OCCOC(=O)c2cc(OC)c(OC)c(OC)c2)c(OC)c1 | 3.26
CCCCOC(=O)c1cccc(C(=O)OCCCC)c1 | 4.26
CCC1(c2ccccc2)NC(=O)NC1=O (stereo unspecified) | 1.53
CC(=O)OCC1CCC(NC(=O)N(CCCl)N=O)CC1 (stereo unspecified) | 2.24

Structure (SMILES) | logP
Cc1c(N2CCCC2)c(=O)n(-c2ccccc2)c(=O)n1C | 2.26
CC(=O)OC1COC(NC(=O)N(CCl)N=O)C(OC(C)=O)C1OC(C)=O (stereo unspecified) | 1.13
NCC(CC(=O)O)c1ccc(Cl)cc1 (stereo unspecified) | -0.96
CCCCCC1CNC(C(=O)NC(C(C)Cl)C2OC(SC)C(O)C(O)C2O)C1 (stereo unspecified) | 2.74
CSc1cccc(NC(C)=O)c1 | 2.14
O=[N+]([O-])c1ccc(OCCn2ccnn2)cc1 | 1.19
N#CCCN(CCC#N)/N=N/c1nc[nH]c1C(N)=O | -0.76
CCOC(=O)N=[N+]([O-])c1ccccc1 | 2.53
CCC(CC)C1=Nc2ccccc2S(=O)(=O)N1 | 1.88
CC1(C)OC2CC3C4CC(F)C5=CC(=O)C(Cl)=CC5(C)C4(F)C(O)CC3(C)C2(C(=O)CO)O1 (stereo unspecified) | 2.99
CSc1ccc(NC(C)=O)cc1 | 2.03
Cc1c(N2CCOCC2)c(=O)n(-c2ccccc2)c(=O)n1C | 0.69
CC(=O)N(C)c1ccc(S(=O)(=O)N(C)C)cc1 | 0.23
O=CC=Cc1ccco1 | 1.15
CCC(=O)OCC(=O)C1(OC(=O)CC)C(C)CC2C3CC(F)C4=CC(=O)C(Cl)=CC4(C)C3(F)C(O)CC21C (stereo unspecified) | 4.22
Nc1nnc(N)[nH]1 | -1.61
CC(=O)NCCC(=O)N(C)c1ccc(S(=O)(=O)N(C)C)cc1 | -0.35
CCOC(=O)CON=Cc1ccc(OCCOC(=O)c2ccccc2OC)c(OC)c1 | 3.27
CCCC1CNC(C(=O)NC(C(C)O)C2OC(SC)C(O)C(O)C2O)C1 (stereo unspecified) | 0.04
Cc1csc(N=C(N)N)n1 | 1.24
c1ccc2c(c1)CNc1ccccc1C2 | 2.9
O=C(O)c1ccccc1-c1ccccc1 | 2.89
COc1cccc2c1C(=O)c1c(O)c3c(c(O)c1C2=O)CC(O)(C(=O)CO)CC3O (stereo unspecified) | 2.74
CN(C(=O)CCC#N)c1ccc(S(=O)(=O)N(C)C)cc1 | -0.17
N[C@@H](CSC(c1ccccc1)(c1ccccc1)c1ccccc1)C(=O)O | 2.06

Structure (SMILES) | logP
CC(=O)Nc1ccc2c(c1)S(=O)(=O)c1ccccc1C2=O | 2.35
CN(C)N=CCCc1ccccc1 | 2.05
CN(C)c1ccc(C(=C2C=CC(=[N+](C)C)C=C2)c2ccc(N(C)C)cc2)cc1.[Cl-] | 0.96
CCCCCCCCCCCCCCCC(=O)OCC1OC(n2ccc(N)nc2=O)C(O)C1O (stereo unspecified) | 5.03
O=C(CN(C(=O)CCl)c1ccccc1)Nc1ccccc1 | 2.32
COc1ccc(-c2nc3ccccc3[nH]2)c(OC)c1 | 2.59
CS(=O)(=O)F | 0.55
COc1ccc(-c2ncc[nH]2)c(OC)c1 | 1.72
CCCCCCCCCCCCN.Cl | 1.85
CN(C)N=Nc1cn(C2OC(CO)C(O)C2O)c(=O)[nH]c1=O (stereo unspecified) | -1.82
Cc1c(N(C)C)c(=O)[nH]c(=O)n1-c1ccccc1 | 1.4
NC(=O)N=[N+]([O-])c1ccccc1 | 0.58
CC(=O)Nc1ccc2c(=O)c(C)c(C)oc2c1[N+](=O)[O-] | 1.61
c1ccc(CSc2cnn[nH]2)cc1 | 2.65
COc1ccccc1C=CC(=O)OCCOc1ccc(C=O)cc1OC | 3.65
COc1cccc(OC)c1OC | 1.53
CCOC(=O)CC(=O)C=Cc1ccc(C)cc1 | 2.63
O=C1CC(C(=O)O)Oc2ccccc21 (stereo unspecified) | 1.26
CCCCNc1c(C)n(C)c(=O)n(-c2ccccc2)c1=O | 1.69
CC1(O)OC(=O)c2ccccc21 (stereo unspecified) | 0.81
COCCN(N=Nc1[nH]cnc1C(N)=O)C(C)(C)C | 1.14
